Laboratory results published in patent publication US10321684B2, “Use of 9-beta-D-adenosine to increase crop production” (The Regents of the University of California, priority 2009, dated 2019).

Experiments:
Type in all cases: in vivo
[1] = system: 'Hass' avocado trees bearing an on-crop; experiment: Trunk injection: spring bloom (bud break) of on-crop avocado trees; details: for Floral (with fruit), No. of shoots per 100 nodes / Floral (w/o fruit), No. of shoots per 100 nodes / Determinate Floral, No. of shoots per 100 nodes / Indeterminate Floral, No. of shoots per 100 nodes / Floral, No. of shoots per 100 nodes: 1 g/tree trunk injection in Jan; for Floral (with fruit), No. of shoots per 100 nodes: branches with fruit; for Floral (w/o fruit), No. of shoots per 100 nodes: branches without fruit; for Determinate Floral, No. of shoots per 100 nodes / Indeterminate Floral, No. of shoots per 100 nodes / Floral, No. of shoots per 100 nodes: counted at spring bloom; for Floral, No. of shoots per 100 nodes: total floral shoots
Method: This example describes the use of adenosine to increase spring bud break of ‘Hass’ avocado trees to increase floral intensity and avocado production. Increased bud break was achieved via trunk injection of adenosine (9-beta-D-adenosine) obtained from Sigma Chemical Co. (Catalog No. A9251), alone or with a plant growth regulator. The following treatments were injected (1 g/tree) in mid-January into the trunk of on-crop ‘Hass’ avocado trees in a commercial orchard in Irvine, Calif.: (1) adenosine (Sigma); (2) 6-BA (Sigma); (3) GA3 (ProGibb 40%, Valent BioSciences Corp.); (4) TIBA (Sigma), and (5) TIBA plus adenosine. Each material was supplied at the rate of 1 g per tree dissolved in 50 to 60 ml distilled water using two plastic syringes per tree. There were five individual tree replicates per treatment, including (6) untreated on-crop control trees. For each tree, branches (12 inches long), 1 with fruit and 1 branch without fruit in each of the four tree quadrants, were tagged.

[2] = system: tomato plants (cv. Supersweet 100); experiment: Adenosine by irrigation: vegetative and reproductive growth of tomato plants; details: irrigation daily
Method: This example describes the increase in fruit production by tomato plants (cv. Supersweet 100), achieved via application of adenosine by irrigation. Adenosine (9-beta-D-adenosine) obtained from Sigma Chemical Co. (Catalog No. A9251) was applied in a sufficient amount of distilled water to move the material into the root zone of ‘Supersweet 100’ tomato plants. Plants receiving treatments 2 and 3 were treated once every 10 days. Plants receiving treatments 4, 5, 6, and 7 were treated daily. The total amount of cytokinin or adenosine received by plants in each treatment by the end of experiment (75 days after planting) is given in parenthesis in the Table 1-1 below. The IPA concentration of the vermicompost tea was determined by radioimmunoassay.

[3] = system: 'Fina Sodea' Clementine mandarin trees; experiment: Adenosine by foliar spray (canopy application): fruit number, yield and value of mandarin trees
Method: This example describes the increase in the number and yield of commercially valuable fruit of Clementine mandarin trees achieved by canopy application of adenosine. Adenosine (9-beta-D-adenosine) obtained from Sigma Chemical Co. (Catalog No. A9251) was applied (25 mg/L in 250 gallons of water per acre; 23.66 g/acre) with a 400 psi handgun sprayer one time at maximum peel thickness, which marks the end of the cell division stage of citrus fruit development, to ‘Fina Sodea’ Clementine mandarin trees.

Compound	Floral (with fruit), No. of shoots per 100 nodes [1]	Floral (w/o fruit), No. of shoots per 100 nodes [1]	Determinate Floral, No. of shoots per 100 nodes [1]	Indeterminate Floral, No. of shoots per 100 nodes [1]	Floral, No. of shoots per 100 nodes [1]	# Fruit, average value per plant ([2]; total 0.35 μg by 75 days)	# Fruiting shoots, average value per plant ([2]; total 0.35 μg by 75 days)	# Leaves, average value per plant ([2]; total 0.35 μg by 75 days)	# Veg. shoots, average value per plant ([2]; total 0.35 μg by 75 days)	Fruit diameter ([2]; total 0.35 μg by 75 days)	Main Shoot (mm), average value per plant ([2]; total 0.35 μg by 75 days)	Tap Root (mm), average value per plant ([2]; total 0.35 μg by 75 days)	further results
Nc1ncnc2c1ncn2[C@@H]1O[C@H](CO)[C@@H](O)[C@H]1O [Adenosine, 9-beta-D-adenosine]	8 abc shoots per 100 nodes	10 shoots per 100 nodes	3 ab shoots per 100 nodes	7 shoots per 100 nodes	10 ab shoots per 100 nodes	15 a	17.60 a	111 a	38.00 a	24.13 a mm	74.00 mm	28.00 mm	number of floral shoots compared to the untreated on-crop control trees ([1]; single trunk injection in January): not significantly different; effect on length of the main shoot or the tap root ([2]; total 0.35 μg by 75 days): did not significantly alter; more leaves than untreated control plants ([2]; total 0.35 μg by 75 days): 2.85 fold; net increase in the number of fruit per plant over the untreated control ([2]; total 0.35 μg by 75 days): 87.5%; increase of average size of individual tomato fruit over untreated control ([2]; total 0.35 μg by 75 days, transverse diameter): 61%; Total kg/tree, Medium ([3]; 25 mg/L once at maximum peel thickness, 3-year cumulative yield, diameter 50.81-57.15 mm): 37.00 kg/tree; net increase in total fruit number ([3]; adenosine applied at maximum peel thickness, numerical (non-significant)): 12,460 fruit/200 trees/acre/3 years; effect on fruit quality ([3]; any year of the 3-year study): did not have a negative effect; juice acid of fruit from treated trees ([3]; year three of the study, P=0.0163): significantly reduced; total soluble solids to acid ratio of the juice ([3]; year three of the study, P=0.0570): higher
C=C1C[C@]23C[C@@]1(O)CC[C@H]2[C@@]12C=C[C@H](O)[C@@](C)(C(=O)O1)[C@H]2[C@@H]3C(=O)O [GA3, gibberrillic acid]	6 bc shoots per 100 nodes	8 shoots per 100 nodes	2 b shoots per 100 nodes	6 shoots per 100 nodes	7 b shoots per 100 nodes								
CC(C)=CCNc1ncnc2nc[nH]c12 [IPA, isopentenyladenine]						10 bc	11.60 cd	87 c	30.80 c	19.92 c mm	81.00 mm	20.25 mm	# Fruit, average value per plant ([2]; total 0.035 μg by 75 days): 13 ab; # Fruiting shoots, average value per plant ([2]; total 0.035 μg by 75 days): 12.40 bc; # Leaves, average value per plant ([2]; total 0.035 μg by 75 days): 99 abc; # Veg. shoots, average value per plant ([2]; total 0.035 μg by 75 days): 30.20 c; Fruit diameter ([2]; total 0.035 μg by 75 days): 21.81 b mm; Main Shoot (mm), average value per plant ([2]; total 0.035 μg by 75 days): 73.75 mm; Tap Root (mm), average value per plant ([2]; total 0.035 μg by 75 days): 25.50 mm
O=C(O)c1cc(I)cc(I)c1I [TIBA, 2,3,5-triiodobenzoic acid]	11 ab shoots per 100 nodes	8 shoots per 100 nodes	1 b shoots per 100 nodes	8 shoots per 100 nodes	9 b shoots per 100 nodes								
